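The compound was tested at five concentrations on cells cultured in 96-well plates, with a 48-hour exposure period. GI50 marks 50% less growth.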 Activity calls are given as the source filed them. Cut-off read from the data, not from the text of the source: active = GI50 up to about 1.1 µM and inactive = higher.
Experiments:
Assay in all cases: DTP human tumour cell line panel, 48 h
786-0 = test system: 786-0
A498 = test system: A498
A549 = test system: A549
ACHN = test system: ACHN
BT-549 = test system: BT-549
CAKI-1 = test system: CAKI-1
CCRF-CEM = test system: CCRF-CEM
COLO 205 = test system: COLO 205
DU-145 = test system: DU-145
EKVX = test system: EKVX
HCC 2998 = test system: HCC 2998
HCT-116 = test system: HCT-116
HCT-15 = test system: HCT-15
HL-60 = test system: HL-60
HOP-62 = test system: HOP-62
HOP-92 = test system: HOP-92
HT-29 = test system: HT-29
Hs-578T = test system: Hs-578T
IGROV-1 = test system: IGROV-1
K562 = test system: K562
KM12 = test system: KM12
LOX IMVI = test system: LOX IMVI
M14 = test system: M14
MCF7 = test system: MCF7
MDA-MB-231 = test system: MDA-MB-231
MDA-MB-435 = test system: MDA-MB-435
MDA-N = test system: MDA-N
MOLT-4 = test system: MOLT-4
Malme-3M = test system: Malme-3M
NCI-H226 = test system: NCI-H226
NCI-H23 = test system: NCI-H23
NCI-H460 = test system: NCI-H460
NCI-H522 = test system: NCI-H522
NCI/ADR-RES = test system: NCI/ADR-RES
OVCAR-3 = test system: OVCAR-3
OVCAR-4 = test system: OVCAR-4
OVCAR-5 = test system: OVCAR-5
OVCAR-8 = test system: OVCAR-8
PC-3 = test system: PC-3
RPMI-8226 = test system: RPMI-8226
RXF 393 = test system: RXF 393
SF-268 = test system: SF-268
SF-295 = test system: SF-295
SF-539 = test system: SF-539
SK-MEL-2 = test system: SK-MEL-2
SK-MEL-5 = test system: SK-MEL-5
SK-OV-3 = test system: SK-OV-3
SN12C = test system: SN12C
SNB-19 = test system: SNB-19
SNB-75 = test system: SNB-75
SR = test system: SR
SW-620 = test system: SW-620
T47D = test system: T47D
TK-10 = test system: TK-10
U-251 = test system: U-251
UACC-257 = test system: UACC-257
UACC-62 = test system: UACC-62
SK-MEL-28 = test system: SK-MEL-28
UO-31 = test system: UO-31

Measured: GI50

Cc1coc2c1CC1(C)C(CCC(O)C1C)C2 (centres undefined)
> 100 µM: HCT-15
inactive: 786-0 > 100 µM | A498 > 100 µM | A549 > 100 µM | ACHN > 100 µM | BT-549 > 100 µM | CAKI-1 > 100 µM | CCRF-CEM > 100 µM | COLO 205 > 100 µM | DU-145 > 100 µM | EKVX > 100 µM | HCC 2998 > 100 µM | HCT-116 > 100 µM | HL-60 > 100 µM | HOP-62 > 100 µM | HOP-92 > 100 µM | HT-29 > 100 µM | Hs-578T > 100 µM | IGROV-1 > 100 µM | K562 > 100 µM | KM12 > 100 µM | LOX IMVI > 100 µM | M14 > 100 µM | MCF7 > 100 µM | MDA-MB-231 > 100 µM | MDA-MB-435 > 100 µM | MDA-N > 100 µM | MOLT-4 > 100 µM | Malme-3M > 100 µM | NCI-H226 > 100 µM | NCI-H23 > 100 µM | NCI-H460 > 100 µM | NCI-H522 > 100 µM | NCI/ADR-RES > 100 µM | OVCAR-3 > 100 µM | OVCAR-4 > 100 µM | OVCAR-5 > 100 µM | OVCAR-8 > 100 µM | PC-3 > 100 µM | RPMI-8226 > 100 µM | RXF 393 > 100 µM | SF-268 > 100 µM | SF-295 > 100 µM | SF-539 > 100 µM | SK-MEL-2 > 100 µM | SK-MEL-5 > 100 µM | SK-OV-3 > 100 µM | SN12C > 100 µM | SNB-19 > 100 µM | SNB-75 > 100 µM | SR > 100 µM | SW-620 > 100 µM | T47D > 100 µM | TK-10 > 100 µM | U-251 > 100 µM | UACC-257 > 100 µM | UACC-62 > 100 µM

N#CCN1CCN(CC#N)CCN(CC#N)CCN(CC#N)CC1
inactive: 786-0 > 100 µM | A498 > 100 µM | A549 > 100 µM | ACHN > 100 µM | BT-549 > 100 µM | CAKI-1 > 100 µM | CCRF-CEM 67 µM | COLO 205 > 100 µM | DU-145 > 100 µM | HCC 2998 43.5 µM | HCT-116 > 100 µM | HL-60 33.3 µM | HOP-62 > 100 µM | HOP-92 > 100 µM | HT-29 50.5 µM | Hs-578T > 100 µM | IGROV-1 > 100 µM | K562 > 100 µM | KM12 > 100 µM | LOX IMVI 33.3 µM | M14 > 100 µM | MCF7 43.1 µM | MDA-MB-231 > 100 µM | MDA-MB-435 > 100 µM | MDA-N > 100 µM | MOLT-4 > 100 µM | Malme-3M > 100 µM | NCI-H226 > 100 µM | NCI-H23 > 100 µM | NCI-H460 53.3 µM | NCI-H522 > 100 µM | NCI/ADR-RES > 100 µM | OVCAR-3 > 100 µM | OVCAR-4 > 100 µM | OVCAR-5 > 100 µM | OVCAR-8 > 100 µM | PC-3 96.4 µM | RPMI-8226 38.3 µM | RXF 393 79.6 µM | SF-268 > 100 µM | SF-295 > 100 µM | SF-539 > 100 µM | SK-MEL-28 > 100 µM | SK-MEL-2 > 100 µM | SK-MEL-5 > 100 µM | SK-OV-3 46.8 µM | SN12C > 100 µM | SNB-19 > 100 µM | SNB-75 > 100 µM | SR > 100 µM | SW-620 42 µM | T47D > 100 µM | TK-10 > 100 µM | U-251 > 100 µM | UACC-257 > 100 µM | UACC-62 80.2 µM | UO-31 > 100 µM

From ChEMBL document CHEMBL1201862, “PubChem BioAssay data set” (2004)
